Data as given in patent US20260102407A1, “TREATMENT METHODS” (priority 2020, published 2026).

Legend:
rabbits = experiment: GLP ocular tolerance study, single intravitreal injection; type: in vivo, rabbit; details: single intravitreal injection 10 μg/50 μl, after 28 days
HY79b pigmented rabbits = experiment: Rabbit retinal vascular hyperpermeability model induced by rhVEGF-A165; type: in vivo
Experimental: Rabbit retinal vascular hyperpermeability model. Male HY79b pigmented rabbits (8-12 week-old) were anesthetized by an intramuscular injection of Rompun® (xylazine)/Imalgene® (ketamine). Compound (600 μg BT2, BT3 or saline vehicle containing 0.5% Tween 80 and 10% DMSO vehicle in 100 μl) was injected into the right eye 5d prior to rhVEGF-A165 induction. Injections were performed on anesthetized animals under an operating microscope using a 250 μl Hamilton syringe (fitted with 30G needle). Retinal vascular permeability was induced by a single 50 μl IVT injection of 500 ng rhVEGF-A165 (diluted in PBS with carrier protein) into the right eye. Forty-seven hours (+/−3 h) after induction, sodium fluorescein (10% in saline, 50 mg/kg) was injected into the marginal ear vein. One hour after fluorescein injection, animals were anaesthetized and pupils were dilated by instillation of one drop of 0.5% tropicamide. Ocular fluorescence in both eyes was measured with a FM-2 Fluorotron Master ocular fluorophotometer. Animals were euthanized by injection of pentobarbital.

[1] = molecular target: T1, Recombinant human His-MEK2 (Homo sapiens, UniProt P36507); experiment: SPR (Biacore T200) on immobilised His-MEK2; type: binding; details: 15° C.; 20 mM HEPES, 150 mM NaCl, 5% DMSO pH 7.4
T1 construct: purchased ThermoFisher Scientific PV3615
Experimental: SPR. SPR was performed on a Biacore T200. The active and reference flow cells of a Xantec NIHMC Ni sensor chip were conditioned with 0.5M NaEDTA followed by 5 mM NiCl2 in immobilisation buffer (20 mM HEPES, 150 mM NaCl, pH 7.4). Recombinant human His-MEK1 and His-MEK2 (500 nM, ThermoFisher Scientific, cat. PV3303 and PV3615, respectively) were injected for 15 min at 10 μl min^−1 over separate active flow cells. All immobilisation was carried out at 25° C. Following immobilisation, the temperature was lowered to 15° C., and the buffer changed to 20 mM HEPES, 150 mM NaCl, 5% DMSO pH 7.4. Samples of PD98059 (2.5-30 μM in running buffer) and BT2 (1.25-15 μM) were injected at a flow rate of 30 μl min^−1 over immobilised MEK1 and MEK2. Solvent correction was applied to the data using a DMSO standard curve. Data were analysed using the Biacore T200 Evaluation software. Prior to SPR, limits of compound solubility were determined using ^1H 1D NMR.

[2] = Solubility on dilution in medium containing serum; type: physicochemical
CD31 = experiment: Matrigel plug assay, CD31 staining; type: in vivo; details: C57BL/6 mice; 2.5 mg/mouse in plug with VEGF-A165 and heparin; 7 days
Experimental: (§1) Matrigel plug assay. Matrigel (500 μl) containing VEGF-A165 (100 ng/ml), heparin (10U) and BT2 or BT3 (2.5 mg/mouse) or its vehicle (saline containing 0.01% DMSO and 0.5% Tween 80) was injected subcutaneously into the left flanks of male 8 week-old C57BL/6 mice. After 7d the mice were sacrificed by CO2 asphyxiation and the plugs carefully removed. Formalin-fixed paraffin embedded sections were prepared from Matrigel plugs for immunohistological assessment. Heat-induced epitope retrieval was applied to all deparaffinized sections (4 μm Superfrost slides) in citrate buffer, pH 6 for 5 min at 110° C. Immunostaining for all groups with a given antibody was performed simultaneously and development time was identical. […]
(§2) Slides were scanned using an Aperio ScanScope XT slide scanner (Leica Biosystems, Mt Waverley, Vic Australia) and images captured using ImageScope software (Leica Biosystems). Positive intraplug staining was assessed using Image-Pro Plus software (Cybernetics, Bethesda, MD) in 5-12 randomly selected fields of view for each plug photographed under 10× (CD31), 20× (VCAM-1) and 40× (FosB) objectives and expressed as integrated optical density (IOD, the product of calibrated intensity (optical density) and area, i.e. IOD=intensity (mean)×area) (Media Cybernetics) (Liu, H., et al., Sci Rep 6, 21319 (2016)). […]

HMEC-1 = experiment: Endothelial proliferation assay using the Countess system with Trypan Blue exclusion; type: cell-based, human; details: 5% FBS, 0.1-0.6 μM, 24 h
Experimental: Endothelial proliferation assay using the Countess system. HMEC-1 proliferation was assessed using a Countess II Automated Cell Counter (ThermoFisher Scientific). Briefly, HMEC-1 (3×10^5 cells/well) were seeded in a 12-well plate. Cells were serum-deprived for 24 h in MCDB131 medium which contained 10 ng/ml EGF and 1 μg/ml hydrocortisone then treated with compound (0.1-0.6 μM) in medium containing 5% FBS, 10 ng/ml EGF and 1 μg/ml hydrocortisone. The cells were trypsinized after 24 h, resuspended in complete medium, a 10 μl aliquot was combined with an equal volume of […], and total cell numbers and Trypan Blue-excluding cells as a proportion of total was determined using the Countess.

FosB = experiment: Matrigel plug assay, FosB staining; type: in vivo; details: C57BL/6 mice; 2.5 mg/mouse; 7 days
Experimental: as §1, §2

T1 sequence (P36507 whole entry): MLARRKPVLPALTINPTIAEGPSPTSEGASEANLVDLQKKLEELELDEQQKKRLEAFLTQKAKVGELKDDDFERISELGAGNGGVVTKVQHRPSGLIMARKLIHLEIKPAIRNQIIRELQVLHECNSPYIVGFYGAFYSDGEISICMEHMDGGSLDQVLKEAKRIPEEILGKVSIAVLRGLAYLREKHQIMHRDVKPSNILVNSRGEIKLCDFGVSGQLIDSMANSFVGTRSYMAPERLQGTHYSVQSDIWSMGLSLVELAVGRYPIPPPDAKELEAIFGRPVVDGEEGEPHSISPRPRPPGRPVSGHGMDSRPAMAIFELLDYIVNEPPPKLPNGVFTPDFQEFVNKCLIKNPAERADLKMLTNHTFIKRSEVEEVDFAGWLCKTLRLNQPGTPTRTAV

Row | Structure (SMILES) | ocular tolerance (rabbits) | inhibition of retinal leakage induced by rhVEGF-A165 (HY79b pigmented rabbits; single IVT 600 μg, 5 d before induction, after 2 days) [%] | binding to His-MEK2 (SPR) [1] | effect of serum in the diluent on solubility ([2]; adding serum to the diluent) | new blood vessel formation (CD31 staining) in Matrigel plugs (CD31) | Trypan Blue incorporation (% living cells) (HMEC-1) | serum-inducible proliferation, total cell numbers (Countess) (HMEC-1) | FosB immunoreactivity in Matrigel plugs (FosB) | effect on retinal vascular leakage induced by rhVEGF-A165 (HY79b pigmented rabbits; IVT 600 μg, fluorescence ratio R/L) | solubility relative to BT2 and analogues ([2]; dilution in medium containing serum)
1 | CCOC(=O)Nc1ccc2c(c1)C(=O)N(CC)c1ccccc1O2 [BT2, (10-ethyl-11-oxo-10,11-dihydro-dibenzo[b,f][1,4]oxazepin-2-yl)-carbamic acid ethyl ester] | well tolerated macroscopically and histologically | ~50 | bound to His-MEK1 significantly better than to His-MEK2 | increased BT2 solubility | suppressed new blood vessel formation | without affecting Trypan Blue incorporation | inhibited serum-inducible proliferation | inhibited | – | –
2 | CCN1C(=O)c2cc(N)ccc2Oc2ccccc21 [BT3, 2-amino-10-ethyldibenzo[b,f][1,4]oxazepin-11 (10H)-one] | – | – | no appreciable binding | – | no effect | – | – | – | inactive | the most soluble of all these dibenzoxazepinones
